Laboratory results taken from patent US11866431B2, “Bicyclic compounds” (Vivace Therapeutics, Inc., priority 2018, dated 2024).

The compounds below were run on 8XTBD luciferase reporter (YAP reporter) in HEK293T cells (assay: YAP Reporter Assay). Settings: Homo sapiens, HEK-293T; HEK293T cells stably transfected with 8XTBD luciferase reporter and pRLTK; 24-hr incubation; top concentration 3 μM; read-out: Firefly Luciferase IC50.
Type: cell-based
In short: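 HEK293T cells stably carrying 8XTBD firefly luciferase and TK-renilla (3×10^3 cells/well) dosed 3-4 h after plating with compounds from 3 μM final, 1:3 dilution, 10 points, quadruplicates. After 24 h at 37° C, Dual-Glo readings gave IC50 and maximum inhibition reported separately for firefly and renilla.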

| Structure (SMILES) | IC50 |
| --- | --- |
| O=C(NC1(c2ccccn2)CC1)c1ccc2c(-c3ccc(C(F)(F)F)cc3)cccc2c1 [Compound 250, N-(1-(pyridin-2-yl)cyclopropyl)-5-(4-(trifluoromethyl)phenyl)-2-naphthamide] | 100 to 1000 nM |
| CC(C)NC(=O)c1ccc2c(-c3ccc(C(F)(F)F)cc3)nccc2c1 [Compound 11, N-isopropyl-1-[4-(trifluoromethyl)phenyl]isoquinoline-6-carboxamide] | < 100 nM |
| CC(C)NC(=O)c1ccc2c(-c3ccc(C(F)(F)F)cc3)cc3ncnn3c2c1 [Compound 300, N-Isopropyl-5-(4-(trifluoromethyl)phenyl)-[1,2,4]triazolo[1,5-a]quinoline-8-carboxamide] | 100 to 1000 nM |
| O=C(NCc1ccccc1)c1ccc2c(-c3ccc(C(F)(F)F)cc3)cccc2c1 [Compound 241, N-benzyl-5-(4-(trifluoromethyl)phenyl)-2-naphthamide] | < 100 nM |
| O=C(NC(CO)c1ccccn1)c1ccc2c(-c3ccc(C(F)(F)F)cc3)cccc2c1 (stereo not shown) [Compound 110, N-(2-hydroxy-1-(pyridin-2-yl)ethyl)-5-(4-(trifluoromethyl)phenyl)-2-naphthamide] | < 100 nM |
| Cc1nsc(CNC(=O)c2ccc3c(-c4ccc(C(F)(F)F)cc4)cccc3c2)n1 [Compound 221, N-((3-methyl-1,2,4-thiadiazol-5-yl)methyl)-5-(4-(trifluoromethyl)phenyl)-2-naphthamide] | < 100 nM |
| O=C(O)c1cnc2c(-c3ccc(C(F)(F)F)cc3)cccc2n1 [Compound 334, 5-(4-(trifluoromethyl)phenyl)quinoxaline-2-carboxylic Acid] | 100 to 1000 nM |
| O=C(NC(CF)CF)c1ccc2c(-c3ccc(C(F)(F)F)cc3)cccc2c1 [Compound 62, N-(1,3-difluoropropan-2-yl)-5-(4-(trifluoromethyl)phenyl)-2-naphthamide] | 100 to 1000 nM |
| CC(C)NC(=O)c1ccc2c(-c3ccc(C(F)(F)F)cc3)ccc(Cl)c2c1 [Compound 13, 8-chloro-N-isopropyl-5-(4-(trifluoromethyl)phenyl)-2-naphthamide] | < 100 nM |
| C#Cc1ccc(-c2ccc(C(F)(F)F)cc2)c2ccc(C(=O)NC(C)C)cc12 [Compound 20, 8-ethynyl-N-isopropyl-5-[4-(trifluoromethyl)phenyl]naphthalene-2-carboxamide] | < 100 nM |
| N#Cc1cccc(CNC(=O)c2ccc3c(-c4ccc(C(F)(F)F)cc4)cccc3c2)n1 [Compound 191, N-((6-cyanopyridin-2-yl)methyl)-5-(4-(trifluoromethyl)phenyl)-2-naphthamide] | 100 to 1000 nM |
| O=C(O)c1ccc2c(-c3ccc(C(F)(F)F)nc3)cccc2c1 [Compound 331, 5-(6-(trifluoromethyl)pyridin-3-yl)-2-naphthoic Acid] | 100 to 1000 nM |
| CC(C)(C)NC(=O)c1ccc2c(-c3ccc(C(F)(F)F)cc3)cccc2c1 [Compound 264, N-(tert-butyl)-5-(4-(trifluoromethyl)phenyl)-2-naphthamide] | 100 to 1000 nM |
| NC(=O)/C=C/CCNC(=O)c1ccc2c(-c3ccc(C(F)(F)F)cc3)cccc2c1 [Compound 222, N-[(E)-5-amino-5-oxo-pent-3-enyl]-5-[4-(trifluoromethyl)phenyl]naphthalene-2-carboxamide] | < 100 nM |
| COc1cc(-c2ccc(C(F)(F)F)cc2F)c2ncc(C(=O)O)cc2c1 [Compound 321, 8-(2-fluoro-4-(trifluoromethyl)phenyl)-6-methoxyquinoline-3-carboxylic Acid] | < 100 nM |
| COC(=O)c1ccc2c(-c3ccc(C(F)(F)F)cc3)cn(C)c(=O)c2c1 [Compound 15, Methyl 2-methyl-1-oxo-4-[4-(trifluoromethyl)phenyl]isoquinoline-7-carboxylate] | 100 to 1000 nM |
| O=C(O)c1ccc2c(-c3ccc(C(F)(F)F)cc3)cccc2c1O [Compound 335, 1-hydroxy-5-(4-(trifluoromethyl)phenyl)-2-naphthoic Acid] | < 100 nM |
| N#CCCNC(=O)c1ccc2c(-c3ccc(C(F)(F)F)cc3)cccc2c1 [Compound 114, N-(2-cyanoethyl)-5-(4-(trifluoromethyl)phenyl)-2-naphthamide] | < 100 nM |
| O=C(NCc1cccc(COc2c(F)cccc2F)n1)c1ccc2c(-c3ccc(C(F)(F)F)cc3)cccc2c1 [Compound 187, N-((6-((2,6-difluorophenoxy)methyl)pyridin-2-yl)methyl)-5-(4-(trifluoromethyl)phenyl)-2-naphthamide] | 100 to 1000 nM |
| CC(C)NC(=O)c1ccc2c(-c3ccc(C(F)(F)F)cc3)cc(S(C)(=O)=O)cc2c1 [Compound 46, N-isopropyl-7-methylsulfonyl-5-[4-(trifluoromethyl)phenyl]naphthalene-2-carboxamide] | < 100 nM |
| C#CCCNC(=O)c1ccc2c(-c3ccc(C(F)(F)F)cc3)cccc2c1 [Compound 112, N-(but-3-yn-1-yl)-5-(4-(trifluoromethyl)phenyl)-2-naphthamide] | < 100 nM |
| CC(NC(=O)c1ccc2c(-c3ccc(C(F)(F)F)cc3)cccc2c1)c1cc(Br)ccn1 (stereo not shown) [Compound 225, N-(1-(4-bromopyridin-2-yl)ethyl)-5-(4-(trifluoromethyl)phenyl)-2-naphthamide] | < 100 nM |
| COC[C@H](C)NC(=O)c1ccc2c(-c3ccc(C(F)(F)F)cc3)cc(OC)cc2c1 [Compound 294, (S)-7-Methoxy-N-(1-methoxypropan-2-yl)-5-(4-(trifluoromethyl)phenyl)-2-naphthamide] | < 100 nM |
| N#C/C=C/CCCNC(=O)c1ccc2c(-c3ccc(C(F)(F)F)cc3)cccc2c1 [Compound 227, N-[(E)-5-cyanopent-4-enyl]-5-[4-(trifluoromethyl)phenyl]naphthalene-2-carboxamide] | < 100 nM |
| C[C@H](CO)NC(=O)c1cnc2c(-c3ccc(C(F)(F)F)cc3)cccc2n1 [Compound 267, (R)—N-(1-hydroxypropan-2-yl)-5-(4-(trifluoromethyl)phenyl)quinoxaline-2-carboxamide] | 100 to 1000 nM |
